# Assays:
# [1] = target: Substance P receptors (GPI) (Cavia porcellus, UniProt P30547); assay: GPI substance P antagonist assay in the presence of 1 μM naloxone; set-up: species or system guinea pig; details: against Substance P induced contraction, n = 4
# [2] = tested on: neuropathic pain; details: cited from earlier work
# Substance P receptors (GPI), sequence (P30547 whole entry): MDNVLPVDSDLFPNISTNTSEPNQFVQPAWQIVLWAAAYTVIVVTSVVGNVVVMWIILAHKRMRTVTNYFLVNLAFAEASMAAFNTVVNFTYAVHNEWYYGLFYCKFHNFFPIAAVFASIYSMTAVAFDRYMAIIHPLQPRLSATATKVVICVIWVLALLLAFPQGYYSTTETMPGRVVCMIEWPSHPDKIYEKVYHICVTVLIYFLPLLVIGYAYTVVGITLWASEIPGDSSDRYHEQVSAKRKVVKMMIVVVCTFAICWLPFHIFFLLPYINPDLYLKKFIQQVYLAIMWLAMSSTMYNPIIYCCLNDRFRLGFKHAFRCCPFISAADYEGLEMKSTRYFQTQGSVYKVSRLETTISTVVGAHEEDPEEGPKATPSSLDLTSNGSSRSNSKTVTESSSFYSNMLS
compound,measurement,setting,value
"CC(=O)N[C@@H](Cc1c[nH]c2ccccc12)C(=O)OCc1cc(C(F)(F)F)cc(C(F)(F)F)c1 [L-732,138]","SP antagonist Ke, GPI",[1],250 ± 87 nM
"Tyr^1-D-Ala^2-Gly^3-Phe^4-Met^5-Pro^6-Leu^7-Trp^8-O-[3′,5′-(CF3)2-Bzl] [TY005]",effect on neuropathic pain in animal models,[2],powerful attenuation of neuropathic pain
same,opioid-induced tolerance in animal models,[2],without producing the opioid-induced tolerance

# Reference: article PMC2943425 (Journal of medicinal chemistry, 2010)
